Read-outs that look alike come from different tables or passages of the source.

Results on 16 molecules are retold here after patent US5972636A (priority 1997, dated 1999).

Data set [1] concerns new protease (multipain) from skeletal muscle. The conditions noted are these: for effect of nucleotides on Ub-125I-lysozyme hydrolysis by the purified enzyme, in words / Relative activity (%), degradation of Ub-125I-lysozyme by the new activity: Table III; for Relative activity (%), degradation of Ub-125I-lysozyme by the new activity: 2 mM of the nucleotides or 10 mM PPi, 37° C. 1 hour; for stimulation of Ub-lysozyme hydrolysis by the new protease: ATP 2 mM where stated, 60 min; for Relative activity (%) NEW […] Ub-lysozyme / Relative activity (%) NEW […] OH/O2 - treated hemoglobin / Relative activity (%) NEW […] lysozyme: Table IV, 37° C. 1 h; for Relative activity (%) NEW […] Ub-lysozyme: DFP 1 mM, Cystatin A 4 uM, Hemin 0.1 mM, NEM 1 mM, Leupeptin 0.1 mM, E64 0.1 mM, NaOleate 0.125 mM, SDS 0.01%, o-Phenanthroline 0.1 mM; for Relative activity (%) NEW […] OH/O2 - treated hemoglobin / Relative activity (%) NEW […] lysozyme: concentrations as in E1.

For data set [2], the system named is 1500 kDa complex (proteasome-multipain). As to conditions: for effect of nucleotides on Ub-125I-lysozyme hydrolysis by the complex, in words / Realtive Activity (%) Complex, Ub-lysozyme degradation: Table VIII; for Realtive Activity (%) Complex, Ub-lysozyme degradation: 2 mM of the nucleotide or 10 mM PPi.
For data set [3], the target named is T1, proteasome from skeletal muscle (Oryctolagus cuniculus, UniProt G1T4Q9).
T1 construct: from tissue; host or cells: rabbit skeletal (psoas) muscle, proteasome fraction after Mono Q and Superose 6
It is filed as biochemical, rabbit.

The mark [4] stands for this setting: Table VII, substrate Ub-125I-lysozyme, None = 100, 2 mM ATP, concentrations as in E5.
Where [5] appears, read: Table VII, None = 100, 2 mM ATP, DFP 1 mM, Cystatin 4 μM, NEM 1 mM, Leupeptin 100 μM, E-64 100 μM, Sodium oleate 125 μM, SDS 0.01%, o-Phenanthroline 100 μM.

`Nc1ncnc2c1ncn2[C@@H]1O[C@H](COP(=O)(O)OP(=O)(O)OP(O)(O)=S)[C@@H](O)[C@H]1O` [ATP-γ-S, adenosine 5'-o-thiotriphosphate]: the “effect of nucleotides on Ub-125I-lysozyme hydrolysis by the purified enzyme, in words” value (“effect … by the purified enzyme, in words” for short) in data set [1] is “No stimulation”. For the same molecule, the “Relative activity (%), degradation of Ub-125I-lysozyme by the new activity” value (from here on “Relative activity (%), degradation”) in data set [1] (None = 100) worked out at 103%. Also, the “effect of nucleotides on Ub-125I-lysozyme hydrolysis by the complex, in words” value (“effect of nucleotides … by the complex, in words” below) in data set [2] was “No stimulation”. Also, the “Realtive Activity (%) Complex, Ub-lysozyme degradation” value in data set [2] (None = 100) is given as 135%.

For the molecule `Nc1nc2c(ncn2[C@@H]2O[C@H](COP(=O)(O)OP(=O)(O)OP(=O)(O)O)[C@@H](O)[C@H]2O)c(=O)[nH]1` [GTP], in data set [1], the “stimulation of Ub-lysozyme hydrolysis by the new protease” value is given as about 4 fold. Besides, in data set [1] (None = 100), the “Relative activity (%), degradation” value is on record as 435%. Also, the “Realtive Activity (%) Complex, Ub-lysozyme degradation” value in data set [2] (None = 100) is on record as 326%.

Take Hemin: in data set [1] (None = 100, 2 mM ATP), the “Relative activity (%) NEW […] Ub-lysozyme” value is reported as 0%, the “Relative activity (%) NEW […] OH/O2 - treated hemoglobin” value (from here on “Relative activity (%) NEW […] OH/O2”) is on record as 7% and the “Relative activity (%) NEW […] lysozyme” value came to 0%. Besides, the “effect on Ub-conjugate breakdown by the new protease (multipain), in words” value (from here on “effect on Ub-conjugate breakdown”) in data set [1] (text) was “blocked conjugate-degrading activity”. Also, the “effect on Ub-conjugate breakdown” value in data set [1] (text, listed as hemin) was “is sensitive to”. Moreover, the “Relative activity (%) […]-MCA” value in data set [3] came to 0%.

Turning to `Nc1ccn([C@@H]2O[C@H](COP(=O)(O)OP(=O)(O)OP(=O)(O)O)[C@@H](O)[C@H]2O)c(=O)n1` [CTP], the “stimulation of Ub-lysozyme hydrolysis by the new protease” value in data set [1] was about 4 fold. Moreover, the “Relative activity (%), degradation” value in data set [1] (None = 100) amounted to 373%. The “Realtive Activity (%) Complex, Ub-lysozyme degradation” value in data set [2] (None = 100) is given as 410%.

For the molecule CBZ-ala-arg-arg-CK, in data set [1], the “concentration that inactivates multipain” value came to 50 µM. For the same molecule, the “concentration that inactivates the 1500 kDa complex” value in data set [2] was 50 µM.

Take `O=c1ccn([C@@H]2O[C@H](COP(=O)(O)OP(=O)(O)OP(=O)(O)O)[C@@H](O)[C@H]2O)c(=O)[nH]1` [UTP]: the “Relative activity (%), degradation” value in data set [1] (None = 100) came to 108%. Further, in data set [2] (None = 100), the “Realtive Activity (%) Complex, Ub-lysozyme degradation” value is recorded as 174%.

For the molecule `Nc1ncnc2c1ncn2[C@@H]1O[C@H](COP(=O)(O)O)[C@@H](O)[C@H]1O` [AMP], the “effect … by the purified enzyme, in words” value in data set [1] is reported as “no significant effect”. Also, the “Relative activity (%), degradation” value in data set [1] (None = 100) is listed as 130%. Moreover, in data set [2], the “effect of nucleotides … by the complex, in words” value is on record as “no significant effect”. For the same molecule, in data set [2] (None = 100), the “Realtive Activity (%) Complex, Ub-lysozyme degradation” value was determined as 99%.

As to `CCN1C(=O)C=CC1=O` [NEM, N-ethylmaleimide], in data set [1] (None = 100, 2 mM ATP), the “Relative activity (%) NEW […] Ub-lysozyme” value stood at 29%, the “Relative activity (%) NEW […] OH/O2” value is 30% and the “Relative activity (%) NEW […] lysozyme” value turned out to be 27%. Moreover, the “Realtive Activity (%) Multipain” value in data set [1] (setting [4]) came to 29%. The “effect on Ub-conjugate breakdown” value in data set [1] (text) is recorded as “strongly inhibited this activity”. The “inhibition of conjugate breakdown by the complex” value in data set [2] (Table VII) worked out at 65%. The “Realtive Activity (%) Complex (Ub-125I-Lysozyme)” value in data set [2] (setting [5]) came out at 33%. Further, in data set [3], the “Realtive Activity (%) Proteasome (sLLVT-MCA)” value is reported as 37% and the “Relative activity (%) […]-MCA” value is 37%.

Consider `CC(=O)N[C@@H](CC(C)C)C(=O)N[C@@H](CC(C)C)C(=O)N[C@H](C=O)CCCNC(=N)N` [Leupeptin], for which, in data set [1] (None = 100, 2 mM ATP), the “Relative activity (%) NEW […] Ub-lysozyme” value is 69%, the “Relative activity (%) NEW […] OH/O2” value is 73% and the “Relative activity (%) NEW […] lysozyme” value is reported as 72%. Moreover, the “Realtive Activity (%) Multipain” value in data set [1] (setting [4]) was determined as 69%. Further, the “inhibition of Ub-conjugate breakdown by the new protease” value in data set [1] (cystatin B at concentrations similar to cystatin A) was determined as 30%. Besides, in data set [2] (Table VII), the “effect on the complex, in words” value is recorded as “did not show any significant effect on the complex”. Further, the “Realtive Activity (%) Complex (Ub-125I-Lysozyme)” value in data set [2] (setting [5]) amounted to 75%. In data set [3], the “Realtive Activity (%) Proteasome (sLLVT-MCA)” value is 83% and the “Relative activity (%) […]-MCA” value was found to be 83%.

As for `CCCCCCCCCCCCOS(=O)(=O)[O-].[Na+]` [SDS, sodium dodecyl sulfate], in data set [1], the “Realtive Activity (%) Multipain” value is reported as 44% and the “Relative activity (%) NEW PROTEASE Ub-lysozyme” value was 44%. Also, in data set [1] (None = 100, 2 mM ATP), the “Relative activity (%) NEW […] OH/O2” value worked out at 42% and the “Relative activity (%) NEW […] lysozyme” value was determined as 46%. Besides, the “Realtive Activity (%) Complex (Ub-125I-Lysozyme)” value in data set [2] turned out to be 46%. Besides, in data set [3], the “Realtive Activity (%) Proteasome (sLLVT-MCA)” value came to 125% and the “Relative activity (%) […]-MCA” value stood at 125%.

Regarding `c1cnc2c(c1)ccc1cccnc12` [o-Phenanthroline], in data set [1] (None = 100, 2 mM ATP), the “Relative activity (%) NEW […] Ub-lysozyme” value worked out at 48%, the “Relative activity (%) NEW […] OH/O2” value came to 54% and the “Relative activity (%) NEW […] lysozyme” value turned out to be 55%. Further, the “Realtive Activity (%) Multipain” value in data set [1] (setting [4]) turned out to be 48%. Besides, the “effect on Ub-conjugate breakdown” value in data set [1] (text) is “showed some inhibition”. In data set [2] (Table VII), the “inhibition of conjugate breakdown by the complex” value is “about 60%”. Also, the “Realtive Activity (%) Complex (Ub-125I-Lysozyme)” value in data set [2] (setting [5]) is recorded as 57%. Also, in data set [3], the “Realtive Activity (%) Proteasome (sLLVT-MCA)” value turned out to be 60% and the “Relative activity (%) […]-MCA” value came out at 60%.

For the molecule `Nc1ncnc2c1ncn2[C@@H]1O[C@H](COP(=O)(O)OP(=O)(O)O)[C@@H](O)[C@H]1O` [ADP], the “effect … by the purified enzyme, in words” value in data set [1] is reported as “no significant effect”. Also, in data set [1] (None = 100), the “Relative activity (%), degradation” value was found to be 113%. The “effect of nucleotides … by the complex, in words” value in data set [2] was “no significant effect”. In addition, the “Realtive Activity (%) Complex, Ub-lysozyme degradation” value in data set [2] (None = 100) amounted to 146%.

Turning to `CC(C)C[C@H](NC(=O)[C@H]1O[C@@H]1C(=O)O)C(=O)NCCCCNC(=N)N` [E64], in data set [1] (None = 100, 2 mM ATP), the “Relative activity (%) NEW […] Ub-lysozyme” value worked out at 100%, the “Relative activity (%) NEW […] OH/O2” value was 100% and the “Relative activity (%) NEW […] lysozyme” value was 100%. For the same molecule, in data set [1] (setting [4]), the “Realtive Activity (%) Multipain” value stood at 100%. For the same molecule, the “effect on Ub-conjugate breakdown” value in data set [1] (text) was “not at all”. Also, the “effect on Ub-conjugate breakdown” value in data set [1] (text, listed as E-64) was “unable to inhibit multipain”. Further, the “effect on the complex, in words” value in data set [2] (Table VII) was “did not show any significant effect on the complex”. In addition, in data set [2] (setting [5]), the “Realtive Activity (%) Complex (Ub-125I-Lysozyme)” value is 96%. Also, in data set [3], the “Realtive Activity (%) Proteasome (sLLVT-MCA)” value is listed as 100% and the “Relative activity (%) […]-MCA” value is reported as 100%.

In the case of `CCCCCCCC/C=C\CCCCCCCC(=O)[O-].[Na+]` [NaOleate, Sodium oleate], in data set [1] (None = 100, 2 mM ATP), the “Relative activity (%) NEW […] Ub-lysozyme” value was found to be 29%, the “Relative activity (%) NEW […] OH/O2” value amounted to 40% and the “Relative activity (%) NEW […] lysozyme” value came to 34%. The “Realtive Activity (%) Multipain” value in data set [1] (setting [4]) was determined as 29%. The “Realtive Activity (%) Complex (Ub-125I-Lysozyme)” value in data set [2] (setting [5]) is 38%. Further, in data set [3], the “Realtive Activity (%) Proteasome (sLLVT-MCA)” value is reported as 179% and the “Relative activity (%) […]-MCA” value came to 179%.

B1: cystatin C: member of the cystatin superfamily (protein, UniProt P01034 27-146, looked up)
Cystatin-C: SSPGKPPRLVGGPMDASVEEEGVRRALDFAVGEYNKASNDMYHSRALQVVRARKQIVAGVNYFLDVELGRTTCTKTQPNLDNCPFHDQPHLKRKAFCSFQIYAVPWQGTMTLSKSTCQDA
Turning to B1, the “effect on Ub-conjugate breakdown” value in data set [1] is listed as “no significant effect”.

B2: cystatin B (protein, UniProt P04080 1-98, looked up)
Cystatin-B: MMCGAPSATQPATAETQHIADQVRSQLEEKENKKFPVFKAVSFKSQVVAGTNYFIKVHVGDEDFVHLRVFQSLPHENKPLTLSNYQTNKAKHDELTYF
For B2, the “inhibition of Ub-conjugate breakdown by the new protease” value in data set [1] amounted to 55%.
